Read-outs that look alike come from different tables or passages of the source.
Columns and labels:
[1] = Pharmacokinetic analysis, plasma and brain levels; type: in vivo; conditions: male, Crl:CD1 (ICR), mouse, ip, ICR mice, n = 3
Method: Male Crl:CD1 (ICR) mice from […], Japan (8 weeks old, n = 3) received a single intraperitoneal injection of S2172 at 30 mg/kg in 5 mL/kg of 15% DMSO/17.5% Cremophor EL/8.75% Ethanol/8.75% HCO-40/50% PBS. Serial blood sampling was conducted from the jugular vein at 0.25, 0.5, 1, 2, 4, and 6 hr time points. At 0.5 h after injection, mice were euthanized, underwent hemoperfusion, and their brain tissue was harvested, homogenized and diluted 4-fold with water. Blood and brain homogenate samples were treated with acetonitrile and centrifuged. The supernatant solution was used for drug level measurement by LC/MS/MS. Pharmacokinetic parameters were calculated using Moment method analysis.

KINGS1 = assay: Western blot of global histone modifications; type: cell-based; conditions: KINGS1, 5 μM, 96 h
Method: (§1) The effects of S2172 on global histone modifications in GSCs were examined using western blot analysis. GSC cells were treated with 5 μM of S2172 since […] of the cells are still viable at this concentration (Fig. 2, Supplementary Fig. S1E). […] Treatment of GSCs with S2172 increased the overall levels of H3K4me2 as well as H3K9me2. However, these changes were not statistically significant (Fig. 2A, B). […]
(§2) instructions. For GSC cells, the CellTiter-Glo 3D Viability Assay (Promega, Madison, WI, USA) was used to measure the living cells. All proliferation experiments were repeated […]
(§3) The density of bands was quantified using ImageJ software (https://imagej.nih.gov/ij/). […]
(§4) When mice were scanned with MRI, mice were anesthetized with isoflurane (3% in air) and placed in MRS 3017 Benchtop MRI Systems (MR Solutions, Guildford, UK). Using MRI images, tumor volumes were obtained by compiling tumor areas from all slices that contained tumors and calculated by ImageJ software (https://imagej.nih.gov/ij/) {Towner, […]
B. Western blot analysis of LSD1,MYC, Nestin, SOX2,and ACTB in same cells as shown in panel A. ACTB was used as a loading control. […] Quantification of signal intensities of the Western blot (right panel). […] Right panel: Quantification of band signal intensities from the Western blot. […]

F3 = assay: Western blot of global histone modifications; type: cell-based; conditions: F3, 5 μM, 96 h
Method: as §1, §2, §3, §4
A. Left panel: Western blot analysis of H3K4me1, H3K4me2, H3K4me3, and H3K9me2 after treatment with either DMSO or S2172 5μM for 96 h in normal neural stem cell F3 . […] Right panel: Quantification of signal intensities of the Western blot. […]
C. […] Right panel: Quantification of band signal intensities from the Western blot. […]

[2] = plasma, single intraperitoneal injection 30 mg/kg

Q: Which concentration at 0.5 hr ([1]; brain, single intraperitoneal injection 30 mg/kg, read-out: Brain concentration at 0.5 hr) does the source give for NC1CCC(NC2CC2c2cc(F)cc(F)c2OCc2ccccc2)CC1 (stereo not drawn) [S2172] here?
A: 1520 ± 140 nM

Q: And the Kp at 0.5 h ([1]; brain/plasma, 0.5 hr after single intraperitoneal injection 30 mg/kg, read-out: Brain/plasma ratio)?
A: 2.06 ± 0.39

Q: What about the Cmax [1, 2] of the same compound?
A: 1200 ± 120 nM

Q: And the Tmax [1, 2]?
A: 0.25 h

Q: What about the half-life [1, 2] of the same compound?
A: 4.98 ± 1.64 h

Q: What about the AUC(0-t) ([1]; plasma, single intraperitoneal injection 30 mg/kg, read-out: AUC0–6 h) of the same compound?
A: 1.11 ± 0.08 µM·h

Q: And the concentration at 0.5 hr ([1]; plasma, single intraperitoneal injection 30 mg/kg, read-out: Plasma concentration at 0.5 hr)?
A: 750 ± 90 nM

Q: What about the “levels of H3K4me1, H3K4me2, H3K4me3, and H3K9me2” value (KINGS1) of the same compound?
A: slight increase

Q: And the “changes in the levels of H3K4me1, H3K4me2, H3K4me3, and H3K9me2” value (F3)?
A: not significant
